pIC50: −log10 of the molar value.
Molecular target: T1, MAPKAPK5 (Homo sapiens, UniProt Q8IW41)
T1 sequence (Q8IW41 1-471 isoform Q8IW41-2): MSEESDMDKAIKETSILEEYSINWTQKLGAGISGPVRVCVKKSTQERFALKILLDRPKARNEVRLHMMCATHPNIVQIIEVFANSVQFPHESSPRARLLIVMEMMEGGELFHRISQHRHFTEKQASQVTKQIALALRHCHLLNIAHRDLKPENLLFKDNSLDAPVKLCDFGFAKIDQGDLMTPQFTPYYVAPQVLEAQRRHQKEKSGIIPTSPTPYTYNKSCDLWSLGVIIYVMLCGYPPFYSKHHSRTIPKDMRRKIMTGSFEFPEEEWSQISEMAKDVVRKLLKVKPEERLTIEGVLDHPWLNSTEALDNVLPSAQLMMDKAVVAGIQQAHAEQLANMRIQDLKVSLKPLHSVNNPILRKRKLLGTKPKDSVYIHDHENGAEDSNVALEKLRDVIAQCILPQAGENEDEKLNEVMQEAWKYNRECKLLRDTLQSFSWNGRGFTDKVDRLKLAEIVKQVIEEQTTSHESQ
Assay: MAPKAP-K5 FlashPlate kinase assay (33P-ATP)
Format: biochemical
Conditions: 0.6 μM ATP, 30 minutes at room temperature
Procedure: 3 μM MAPKAP-K5 peptide substrate

Row | Compound | pIC50
1 | NC(=O)c1cc(-c2cnc(NC3CCN(Cc4ccccc4)C3)c3nccn23)co1 (single isomer, unassigned) [Example 17, 4-[8-(1-BENZYL-PYRROLIDIN-3-YLAMINO)-IMIDAZO[1,2-A]PYRAZIN-5-YL]-FURAN-2-CARBOXYLIC ACID AMIDE] | < 6.00
2 | NC(=O)c1cc(-c2cnc(NC3CCN(Cc4ccccc4)C3)c3ncnn23)co1 (stereo not drawn) [Example 4, 4-[8-(1-Benzyl-pyrrolidin-3-ylamino)-[1,2,4]triazolo[1,5-a]pyrazin-5-yl]-furan-2-carboxylic acid amide] | 6.00 to 6.30
3 | NC(=O)c1cc(-c2cnc(NC3CCCC3)c3nccn23)co1 [Example 7, 4-(8-(CYCLOPENTYLAMINO)IMIDAZO[1,2-A]PYRAZIN-5-YL)FURAN-2-CARBOXAMIDE] | 6.00 to 6.30
4 | CC(C)(C)OC(=O)N1CCC(Nc2ncc(-c3ccc4c(c3)CNC4=O)n3ncnc23)CC1 [Example 12, TERT-BUTYL 4-(5-(1-OXOISOINDOLIN-5-YL)-[1,2,4]TRIAZOLO[1,5-A]PYRAZIN-8-YLAMINO)PIPERIDINE-1-CARBOXYLATE] | 6.00 to 6.30
5 | O=C1NCc2cc(-c3cnc(NC4CCC(O)CC4)c4ncnn34)ccc21 (stereo not drawn) [Example 15, 5-(8-(4-HYDROXYCYCLOHEXYLAMINO)-[1,2,4]TRIAZOLO[1,5-A]PYRAZIN-5-YL)ISOINDOLIN-1-ONE] | 6.30 to 7.00
6 | CC(C)(C)OC(=O)NC1CCC(Nc2ncc(-c3ccc4c(c3)CNC4=O)n3ncnc23)CC1 (stereo not drawn) [Example 16, TERT-BUTYL 4-(5-(1-OXOISOINDOLIN-5-YL)-[1,2,4]TRIAZOLO[1,5-A]PYRAZIN-8-YLAMINO)CYCLOHEXYLCARBAMATE] | 6.00 to 6.30
7 | NC(=O)c1cc(-c2cnc(NC3CCN(Cc4ccccc4)CC3)c3ncnn23)co1 [Example 18, 4-[8-(1-BENZYL-PIPERIDIN-4-YLAMINO)-[1,2,4]TRIAZOLO[1,5-A]PYRAZIN-5-YL]-FURAN-2-CARBOXYLIC ACID AMIDE] | < 6.00

Next, values leading:

Row | pIC50 | Compound
8 | 6.30 to 7.00 | O=C1NCc2cc(-c3cnc(NC4CCCCC4)c4nccn34)ccc21 [Example 1, 5-(8-(cyclohexylamino)imidazo[1,2-a]pyrazin-5-yl)isoindolin-1-one]
9 | 6.30 to 7.00 | NC(=O)c1cc(-c2cnc(NC3CCC3)c3ncnn23)co1 [Example 2, 4-(8-(cyclobutylamino)-[1,2,4]triazolo[1,5-a]pyrazin-5-yl)furan-2-carboxamide]
10 | 6.30 to 7.00 | O=C1NCc2cc(-c3cnc(NC4CCC4)c4nccn34)ccc21 [Example 5, 5-(8-(CYCLOBUTYLAMINO)IMIDAZO[1,2-A]PYRAZIN-5-YL)ISOINDOLIN-1-ONE]
11 | 6.30 to 7.00 | NC(=O)c1cc(-c2cnc(NC3CCC3)c3nccn23)co1 [Example 6, 4-(8-(CYCLOBUTYLAMINO)IMIDAZO[1,2-A]PYRAZIN-5-YL)FURAN-2-CARBOXAMIDE]
12 | 6.30 to 7.00 | O=C1NCc2cc(-c3cnc(NC4CC4)c4ncnn34)ccc21 [Example 14, 5-(8-(CYCLOPROPYLAMINO)-[1,2,4]TRIAZOLO[1,5-A]PYRAZIN-5-YL)ISOINDOLIN-1-ONE]

From patent US8138193B2, “Fused pyrazine compounds useful for the treatment of degenerative and inflammatory diseases” (Janssen Pharmaceutica N.V., priority 2007, dated 2012)
